Reference: article PMC6522510 (Nature Communications, 2019)
Where two headings read alike, the source gives them in different places.

Experiments:
MOLM-13 [1] = experiment: cells; parameters: species or system AML cell lines (8); Secondary HTS, 10-point dose-response in triplicate, Cell Titer Glo viability, four-parameter fit EC50; conditions: Homo sapiens, MOLM-13, 72 h, read-out: MOLM-13
CHRF288-11 [2] = experiment: Secondary dose-response HTS, Cell Titer Glo; type: cell-based, human; conditions: secondary high-throughput screen, CHRF288-11; for EC50: read-out: average effective concentration, CHRF288-11
M07e = experiment: Secondary dose-response HTS, Cell Titer Glo; type: cell-based, human; conditions: secondary high-throughput screen; for EC50: read-out: average effective concentration, M07e
ML2 = experiment: Secondary dose-response HTS, Cell Titer Glo; type: cell-based, human; conditions: secondary high-throughput screen, ML-2; for EC50: read-out: average effective concentration, ML-2
CMS = experiment: Secondary dose-response HTS, Cell Titer Glo; type: cell-based, human; conditions: for EC50: read-out: average effective concentration, CMS
U937 [3] = experiment: Secondary dose-response HTS, Cell Titer Glo; type: cell-based, human; conditions: secondary high-throughput screen, U937; for EC50: read-out: average effective concentration, U937
CMK = experiment: Secondary dose-response HTS, Cell Titer Glo; type: cell-based, human; conditions: CMK; for EC50: read-out: average effective concentration, CMK
MV4-11 [4] = experiment: cells; parameters: species or system AML cell lines (8); Secondary HTS, 10-point dose-response in triplicate, Cell Titer Glo viability, four-parameter fit EC50; conditions: Homo sapiens, MV4-11, 72 h, read-out: MV4-11
U937 [5] = experiment: cells; parameters: species or system AML cell lines (8); Secondary HTS, 10-point dose-response in triplicate, Cell Titer Glo viability, four-parameter fit EC50; conditions: Homo sapiens, U-937, 72 h, read-out: U937
MOLM-13 [6] = experiment: Secondary dose-response HTS, Cell Titer Glo; type: cell-based, human; conditions: secondary high-throughput screen, MOLM-13; for EC50: read-out: average effective concentration, MOLM-13
MV4-11 [7] = experiment: Secondary dose-response HTS, Cell Titer Glo; type: cell-based, human; conditions: secondary high-throughput screen, MV4-11; for EC50: read-out: average effective concentration, MV4-11
CHRF288-11 [8] = experiment: cells; parameters: species or system AML cell lines (8); Secondary HTS, 10-point dose-response in triplicate, Cell Titer Glo viability, four-parameter fit EC50; conditions: 72 h, read-out: CHRF288-11
[9] = Homo sapiens, HTS, secondary high-throughput screen, CMS
[10] = Homo sapiens, secondary high-throughput screen
[11] = secondary high-throughput screen, CMS
[12] = secondary high-throughput screen

Row | Compound | EC50 (CHRF288-11 [2]; Homo sapiens, HTS) [µM] | EC50 (M07e; Homo sapiens, M-07e, M07e) [µM] | EC50 (ML2; Homo sapiens) [µM] | EC50 (U937 [3]; Homo sapiens, U-937) [µM] | EC50 (CMS; [9]) [µM] | EC50 (CMK; [10]) [µM] | average effective concentration, CHRF288-11 (CHRF288-11 [2]) | average effective concentration, M07e (M07e; M07e) | average effective concentration, ML-2 (ML2) | average effective concentration, CMS (CMS; [11]) | average effective concentration, U937 (U937 [3]) | average effective concentration, CMK (CMK; [12]) | average effective concentration, MOLM-13 (MOLM-13 [6]) | average effective concentration, MV4-11 (MV4-11 [7]) | also measured
1 | CC(C)[C@H](C(=O)Nc1ccc(C(=O)NO)cc1)c1ccccc1 [(S)-HDAC-42] | 0.26 | 0.16 | 0.33 | 0.22 |  |  |  |  |  |  |  |  |  |  | EC50 (MOLM-13 [1]): > 10 µM; EC50 (CMS; Homo sapiens, HTS): 0.22 µM; EC50 (CMK; Homo sapiens): 0.038 µM; EC50 (MV4-11 [4]): > 10 µM
2 | CN(C)Cc1c(C(=O)NCCOc2ccc(C(=O)NO)cc2)oc2ccccc12 [ABEXINOSTAT] | 0.037 | 0.026 | 0.093 | 0.03 | 0.034 | 0.012 |  |  |  |  |  |  |  |  | EC50 (MOLM-13 [1]): > 10 µM; EC50 (MV4-11 [4]): > 10 µM
3 | COC(=O)[C@]12CCC(C)(C)C[C@H]1[C@H]1C(=O)C=C3[C@@]4(C)C=C(C#N)C(=O)C(C)(C)[C@@H]4CC[C@@]3(C)[C@]1(C)CC2 [BARDOXOLONE METHYL] | 0.94 | 4 | 0.88 | 1 | 1.1 | 1.1 |  |  |  |  |  |  |  |  | EC50 (MOLM-13 [1]): > 10 µM; EC50 (MV4-11 [4]): > 10 µM
4 | Cc1ccc2nc(NCCN)c3ncc(C)n3c2c1 [BMS-345541] | 3.8 |  | 2.2 | 2.3 | 5.9 | 4.7 |  |  |  |  |  |  |  |  | EC50 (MOLM-13 [1]): > 10 µM; EC50 (M07e; Homo sapiens, M-07e, […]): 6.1 µM; EC50 (MV4-11 [4]): > 10 µM
5 | CC(C)C[C@H](NC(=O)[C@@H](NC(=O)c1cccc(-c2ccccc2)n1)[C@@H](C)O)B(O)O [DELANZOMIB] | 0.0027 | 0.001 | 0.001 | 0.0028 | 0.001 | 0.0015 |  |  |  |  |  |  |  |  | EC50 (MOLM-13 [1]): 0.0021 µM; EC50 (MV4-11 [4]): > 10 µM
6 | Nc1ccccc1NC(=O)c1ccc(CNC(=O)OCc2cccnc2)cc1 [ENTINOSTAT] | 4.1 | 1 | 6.2 | 5.6 | 0.76 | 0.11 |  |  |  |  |  |  |  |  | EC50 (MOLM-13 [1]): > 10 µM; EC50 (MV4-11 [4]): > 10 µM
7 | O=c1[nH]c(=O)n([C@H]2C[C@H](O)[C@@H](CO)O2)cc1F [FLOXURIDINE] | 0.067 | 8.2 | 0.021 |  | 7.9 | 0.98 |  |  |  |  |  |  |  |  | EC50 (U937 [5]): > 10 µM; EC50 (MOLM-13 [6]; Homo sapiens): 0.023 µM; EC50 (MV4-11 [7]; Homo sapiens): 0.13 µM
8 | CCN(CC)CCCC(C)Nc1c2ccc(Cl)cc2nc2ccc(OC)cc12 (stereo not shown) [QUINACRINE] |  | 7.7 | > 10 | 3.9 | 5.5 | 7.7 |  |  |  |  |  |  |  |  | EC50 (MOLM-13 [6]; Homo sapiens): 2.9 µM; EC50 (CHRF288-11 [8]): > 10 µM; EC50 (MV4-11 [7]; Homo sapiens): 3.8 µM
9 | COc1cc2c(NC3CCN(C)CC3)nc(N3CCCN(C)CC3)nc2cc1OCCOCCN(C)C [UNC0321] |  |  |  |  |  |  | Inactive | Inactive | Inactive | Inactive | Inactive | Inactive | Inactive | Inactive | 
10 | COc1cc2c(NC3CCN(C(C)C)CC3)nc(C3CCCCC3)nc2cc1OCCCN1CCCC1 [UNC0638 HYDRATE] | > 10 |  | > 10 | 4.5 | 6 |  |  |  |  |  |  | Inactive |  | Inactive | EC50 (M07e; Homo sapiens, M-07e, […]): 5 µM; EC50 (MOLM-13 [6]; Homo sapiens): > 10 µM
11 | CC[C@]1(O)C[C@H]2CN(CCc3c([nH]c4ccccc34)[C@@](C(=O)OC)(c3cc4c(cc3OC)N(C=O)[C@H]3[C@@](O)(C(=O)OC)[C@H](OC(C)=O)[C@]5(CC)C=CCN6CC[C@]43[C@@H]65)C2)C1 [VINCRISTINE] | 0.39 | 0.001 | 0.008 | 0.035 | 0.23 | > 10 |  |  |  |  |  |  |  |  | EC50 (MOLM-13 [6]; Homo sapiens): 0.043 µM; EC50 (MV4-11 [7]; Homo sapiens): 0.02 µM
12 | CCn1c(=O)c(-c2cc[nH]n2)cc2c(C)nc(N)nc21 [Voxtalisib] |  |  |  |  |  |  | Inactive | Inactive | Inactive | Inactive | Inactive | Inactive | Inactive | Inactive | 
13 | CN1CCc2c(c3ccccc3n2Cc2ccc(C(=O)NO)cc2)C1 [[…]] |  |  |  |  |  |  | Inactive |  | Inactive | Inactive | Inactive | Inactive |  | Inactive | average effective concentration, M07e (M07e; […]): Inactive; EC50 (MOLM-13 [6]; Homo sapiens): > 10 µM
14 | (-)-NUTLIN-3 |  |  |  |  |  |  | Inactive |  |  | Inactive | Inactive | Inactive |  | Inactive | EC50 (M07e; M07e): 0.16 µM; EC50 (ML2): 4.9 µM; EC50 (MOLM-13 [6]): 0.94 µM
15 | ANACARDIC ACID |  |  |  |  |  |  | Inactive | Inactive | Inactive | Inactive | Inactive | Inactive | Inactive | Inactive | 
16 | AZ-20 |  |  |  |  |  |  |  |  |  |  |  | Inactive | Inactive | Inactive | EC50 (CHRF288-11 [2]): 2.5 µM; EC50 (M07e; M07e): 0.2 µM; EC50 (ML2): 0.03 µM; EC50 (CMS; [11]): 0.6 µM; EC50 (U937 [3]): 4.7 µM
17 | EB-47 |  |  |  |  |  |  | Inactive | Inactive | Inactive | Inactive | Inactive | Inactive | Inactive | Inactive | 
18 | IC-87114 |  |  |  |  |  |  | Inactive | Inactive | Inactive | Inactive | Inactive | Inactive | Inactive | Inactive | 
19 | LB 42708 |  |  |  |  |  |  | Inactive | Inactive |  |  | Inactive | Inactive |  |  | EC50 (ML2): 2.3 µM; EC50 (CMS; [11]): 3.4 µM; EC50 (MOLM-13 [6]): 2.5 µM; EC50 (MV4-11 [7]): 5 µM
20 | MST312 |  |  |  |  |  |  |  |  |  |  |  | Inactive |  | Inactive | EC50 (CHRF288-11 [2]): 2 µM; EC50 (M07e; M07e): 5.2 µM; EC50 (ML2): 3.7 µM; EC50 (CMS; [11]): 2.9 µM; EC50 (U937 [3]): 2.8 µM; EC50 (MOLM-13 [6]): 1.5 µM
21 | PU-H71 |  |  |  |  |  |  |  | Inactive |  |  | Inactive |  |  |  | EC50 (CHRF288-11 [2]): 0.17 µM; EC50 (ML2): 0.082 µM; EC50 (CMS; [11]): 0.18 µM; EC50 (CMK; [12]): 0.024 µM; EC50 (MOLM-13 [6]): 0.019 µM; EC50 (MV4-11 [7]): 0.023 µM
22 | SCR7 |  |  |  |  |  |  | Inactive | Inactive | Inactive | Inactive | Inactive | Inactive | Inactive | Inactive | 
23 | SN-38 |  |  |  |  |  |  |  |  |  | Inactive |  |  |  |  | EC50 (CHRF288-11 [2]): 0.00949 µM; EC50 (M07e; M07e): 0.044 µM; EC50 (ML2): 0.00251 µM; EC50 (U937 [3]): 0.037 µM; EC50 (CMK; [12]): 0.023 µM; EC50 (MOLM-13 [6]): 0.0056 µM; EC50 (MV4-11 [7]): 0.24 µM
